Data taken from patent publication US20070254856A1, “Use of acetylsalicylic acid (ASA) in the application of a membrane lung” (priority 2006, published 2007).

Tests used:
[1] = tested on: patient treated with the membrane lung NovaLung iLA; assay: application of the membrane lung NovaLung iLA on a patient receiving ASA; scanning electron microscope image of the gas exchange membrane; type: in vivo, human
Procedure: A patient who required treatment with the NovaLung iLA was administered 50 mg of ASA daily for 1 week before application of the membrane lung. This administration of 50 mg of ASA daily was initially maintained during application of the membrane lung, but the medicament was discontinued one week before removal of the membrane lung. […] FIG. 1 is a scanning electron microscope image of the gas exchange membrane from the membrane lung which was removed and dismantled after a period of use of 14 days on the patient thus treated and medicated.

platelet aggregation = platelet aggregation in the patient receiving ASA with NovaLung iLA treatment, standard clinical methods; type: in vivo, human
Procedure: The membrane lung NovaLung iLA itself was used in the manner described by Fischer el al., loc cit. The platelet aggregation was determined using standard clinical methods.

## CC(=O)Oc1ccccc1C(=O)O [ASA, acetylsalicylic acid]
[1]; 50 mg ASA daily oral, membrane lung removed after period of use of 14 days on the patient
  deposition of blood constituents on the gas exchange membrane (scanning electron microscope image, FIG. 1): no deposition of blood constituents
[1]; 50 mg ASA daily, membrane lung left on the patient for 2 weeks
  gas exchange performance and flow resistance of the membrane lung to the blood stream: without an appreciable reduction in gas exchange performance or an appreciable increase in the flow resistance
Platelet aggregation; 50 mg ASA daily, during the second week of ASA administration
  platelet aggregation (FIG. 3): remained at its reduced value
Platelet aggregation; 50 mg ASA daily, within the first week of ASA administration, when the membrane lung was connected
  platelet aggregation (FIG. 3): below 20%
Platelet aggregation; two weeks after start of treatment with the membrane lung, 1 week after discontinuation of ASA
  platelet aggregation (FIG. 3): below 30%
